Test results published in patent US9840494B2, “Quinazoline derivative” (Tianjin Hemay Oncology Pharmaceutical Co., Ltd., priority 2013, dated 2017).
Marks after values point to notes of the source that are not given here.

Legend:
[1] = biological target: T1, EGFR (Homo sapiens, UniProt P00533); assay: Inhibitory effect on tyrosine kinase activity of EGFR; assay type: biochemical; details: EGFR 40 ng/ml, ATP 10 μM, 30 min
T1 construct: purchased Invitrogen Company PV3872
Experimental: EGFR: Invitrogen Company, Catalogue No. PV3872
pGT (poly(glutamic acid-tyrosine)): Sigma-Aldrich Company, Catalogue No. P0275
The assay method is briefly described as follows.
3.1.1 At 4° C., 96-well microtiter plate was coated with 0.2 mg/mL pGT (as the substrate of enzyme) dissolved in PBS (phosphate buffer) overnight. Unbound pGT was washed away with a washing solution (0.05% Tween −20 in PBS), and the plate was dried in the air at room temperature for 2 h.
3.1.2 The enzyme reaction was performed in 50 μl reaction system containing 50 mM HEPEs (N-(2-hydroxyethyl)piperazine-N′-2-ethanesulfonic acid), pH 7.5, 0.01% BRIJ-35 (polyoxyethylene lauryl ether), 10 mM MgCl2, 1 mM EGTA (ethylene glycol bis(2-aminoethyl ether)tetraacetic acid), with certain concentrations of ATP (adenosine triphosphate) and kinase, and proceeded for 30 min at room temperature. The phosphate group at the terminal of ATP can be transferred to tyrosine residues of pGT by kinase catalysis so as to phosphorylate the tyrosine residues.
3.1.3 A final concentration of 1% SDS (sodium dodecyl sulfate) was added to terminate the reaction. The phosphorylated tyrosine residues were identified using pY-20. HRP at the end of the antibody enabled TMB to take on color. Then equal amount of 2 N H2SO4 was added to terminate the reaction. OD value, which is positively correlated with the phosphorylation degree of tyrosine residues of pGT, was measured at 450 nm
3.2 The concentrations of the kinase and substrate ATP were determined with reference to the literature “Optimization of a LanthaScreen Kinase assay for EGFR (ErbB1)”(https://tools.lifetechnologies.com/content/sfs/manuals/EGFR_LanthaScreen_actity_Europium.pdf), published by Invitrogen Corporation. The selection criteria for the final concentrations are that the concentration of kinase enabling the yield of the product within the linear range of the detection system and the concentration of ATP approching Km (Michaelis constant) value.
3.3.1 An appropriate amount of a compound was dissolved in DMSO (dimethylsulfoxide) to prepare 2 mM stock solution. Then the stock solution was diluted with DMSO to obtain a working solution with a 50-fold concentration of the highest test concentration, and subjected to a 4-fold gradient dilution to obtain seven concentrations in total.
5 μl 10-fold concentration of ATP dissolved in H2O (the concentration of ATP in EGFR assay is 100 μM, and in Her2 assay is 400 μM) was added to initiate the enzyme reaction followed by reaction at room temperature for 30 min
The mean value of inhibition rate and SD (standard deviation) were determined by duplicate wells. A curve with the concentration of the compound as abscissa and being in logarithmic distribution and the mean value of inhibition rate as ordinate was plotted and fitted using four-parameter logistic function.

[2] = Bioavailability assay in rats, Experiment II (dihydrobromide); assay type: in vivo; details: Wistar rats
[3] = test system: A431 human epidermal carcinoma xenograft; assay: A431 human epidermal carcinoma xenograft model; assay type: in vivo, nude mice; details: A431 xenograft, 50 mg/kg intragastric once a day for 14 days
Experimental: (§1) Tumor cells were cultured in an incubator at 37° C. with 5% CO2 using MEM medium containing 10% inactivated fetal calf serum, 100 U/ml penicillin and 100 µg/ml streptomycin. The tumor cells in logarithmic growth phase were collected, adjusted to an appropriate density and injected subcutaneously into nude mice (0.2 ml per mouse). An xenograft model was established after a tumor was formed in the nude mice and passaged in vivo for more than three generations.
(§2) The above-mentioned tumor-bearing mice were sacrificed by cervical dislocation. The tumor was taken out and cut into small tumor pieces (about 2 mm×2 mm×2 mm) under sterile conditions. The small tumor pieces were inoculated subcutaneously into nude mice with a trocar. […] The animals in each group were subjected to intragastric administration once a day for 14 consecutive days. The day of grouping is assigned as day 0.
(§3) Tumor volume is calculated as: volume =0.5×long diameter×short diameter^2. The relative tumor volume (RTV) was calculated based on the measurements as: RTV=Vt/V0, wherein V0 is the tumor volume measured when the animals were grouped to be administrated (i.e., d0), and Vt is the tumor volume when each measurement was taken. Relative tumor proliferation rate T/C was calculated based on relative tumor volume, in which T is the mean value of the relative tumor volume of the treatment group, and C is the mean value of the relative tumor volume of the solvent control group. T/C was calculated as follows: T/C=TRTV/CRTV×100% (TRTV: RTV of the treatment group; CRTV:
RTV of the solvent control group) Inhibition rate (%)=(mean tumor weight of the solvent control group−mean tumor weight of the treatment group)/mean tumor weight of the solvent control group×100%. Percentage of body weight change=Wn/W0×100% (Wn: mean body weight of experimental animals in each group at day n, W0: mean body weight of experimental animals in each group at day 0).
(§4) One-Way ANOVA test was conducted in SPSS13.0, performing statistical analysis between groups.

[4] = test system: FaDu human head and neck cancer xenograft; assay: FaDu human head and neck cancer xenograft model; assay type: in vivo, nude mice; details: FaDu xenograft, 50 mg/kg intragastric daily for 14 days
Experimental: as §1, with “μg/ml” for “µg/ml”, “after” for “after a”
as §2, with “nude mice on the right shoulder blade with a” for “nude mice with a”, “intragastric administration daily for 14” for “intragastric administration once a day for 14”
as §3, with “volume=0.5×long” for “volume =0.5×long”, “CRTV: RTV of the solvent control group) Inhibition rate (%)=(mean tumor weight of the solvent control group−mean tumor weight of the treatment group)/mean tumor weight of the solvent control group×100%. Percentage of body weight change=Wn/W0×100% (Wn: mean body weight of experimental animals in each group at day n, W0: mean body weight of experimental animals in each group at day 0).” for “CRTV:”
as §4

[5] = test system: HCC827 human non-small cell lung cancer xenograft; assay: HCC827 human non-small cell lung cancer xenograft model; assay type: in vivo, nude mice; details: HCC827 xenograft, 50 mg/kg intragastric daily for 14 days
Experimental: as §1, with “μg/ml” for “µg/ml”
as §2, with “nude mice on the right shoulder blade with a” for “nude mice with a”, “intragastric administration daily for 14” for “intragastric administration once a day for 14”
as §3, with “volume=0.5×long” for “volume =0.5×long”, “CRTV: RTV of the solvent control group) Inhibition rate (%)=(mean tumor weight of the solvent control group−mean tumor weight of the treatment group)/mean tumor weight of the solvent control group x 100%. Percentage of body weight change=Wn/W0×100% (Wn: mean body weight of experimental animals in each group at day n, W0: mean body weight of experimental animals in each group at day 0).” for “CRTV:”
as §4

[6] = 20 mg/kg tail intravenous injection
[7] = both sexes, rat, plasma, po, 20 mg/kg intragastric gavage
[8] = both sexes, rat, plasma, 20 mg/kg tail intravenous injection

Q: With `COCCOc1cc2ncnc(Nc3ccc(F)c(Cl)c3)c2cc1NC(=O)C=C1CCN(CCOC)CC1` [Compound 6, N-[4-(3-chloro-4-fluorophenylamino)-7-(2-methoxyethoxy)quinazolin-6-yl]-2-[1-(2-methoxyethyl)piperidin-4-ylidene]acetamide dinitrate] as the compound, how does the IC50 [1] read?
A: 600 pM

Q: With `COCCOc1cc2ncnc(Nc3ccc(F)c(Cl)c3)c2cc1NC(=O)C=C1CCN(CCOC)CC1` [Compound 8, N-[4-(3-chloro-4-fluorophenylamino)-7-(2-methoxyethoxy)quinazolin-6-yl]-2-[1-(2-methoxyethyl)piperidin-4-ylidene]acetamide diphenylsulfonate] as the compound, how does the IC50 [1] read?
A: 800 pM

Q: Which IC50 [1] does the source give for `COCCOc1cc2ncnc(Nc3ccc(F)c(Cl)c3)c2cc1NC(=O)C=C1CCN(CCOC)CC1` [Compound 9, N-[4-(3-chloro-4-fluorophenylamino)-7-(2-methoxyethoxy)quinazolin-6-yl]-2-[1-(2-methoxyethyl)piperidin-4-ylidene]acetamide difumarate] here?
A: 500 pM

Q: With `COCCOc1cc2ncnc(Nc3ccc(F)c(Cl)c3)c2cc1NC(=O)C=C1CCN(CCOC)CC1` [Compound 10, N-[4-(3-chloro-4-fluorophenylamino)-7-(2-methoxyethoxy)quinazolin-6-yl]-2-[1-(2-methoxyethyl)piperidin-4-ylidene]acetamide dimaleate] as the compound, how does the IC50 [1] read?
A: 300 pM

Q: For `COCCOc1cc2ncnc(Nc3ccc(F)c(Cl)c3)c2cc1NC(=O)C=C1CCN(CCOC)CC1` [Compound 11, N-[4-(3-chloro-4-fluorophenylamino)-7-(2-methoxyethoxy)quinazolin-6yl]-2-[1-(2-methoxyethyl)piperidin-4-ylidene]acetamide di(p-toluenesulfonate)], which IC50 [1] is on record?
A: 400 pM

Q: What does the source list for `Br.Br.COCCOc1cc2ncnc(Nc3ccc(F)c(Cl)c3)c2cc1NC(=O)C=C1CCN(CCOC)CC1` [Example 5, N-[4-(3-chloro-4-fluorophenylamino)-7-(2-methoxyethoxy)quinazolin-6-yl]-2-[1-(2-methoxyethyl)piperidin-4-ylidene]acetamide dihydrobromide]?
A: CLz/F ([2]; 20 mg/kg intragastric gavage): 66.48 mL/min/kg; t½z ([2]; 20 mg/kg intragastric gavage): 5.564 h; CLz [2, 6]: 25.8 mL/min/kg; t½z [2, 6]: 5.514 h; bioavailability ([2]; both sexes, rat, plasma, oral, 20 mg/kg ig vs 20 mg/kg iv): 42.8%; AUC(0-inf) [2, 7]: 5550 ng·h/mL; AUC(0-t) [2, 7]: 5240 ng·h/mL; Cmax [2, 7]: 368 ng/mL; Tmax [2, 7]: 6 h; Vd/F ([2]; both sexes, rat, plasma, po, 20 mg/kg intragastric gavage, read-out: Vz/F): 30.1 L/kg; AUC(0-inf) [2, 8]: 13000 ng·h/mL; AUC(0-t) [2, 8]: 12700 ng·h/mL; Cmax [2, 8]: 3240 ng/mL; Tmax [2, 8]: 0.083 h; Vd ([2]; both sexes, rat, plasma, 20 mg/kg tail intravenous injection, read-out: Vz): 12.2 L/kg

Q: With `C#Cc1cccc(Nc2ncnc3cc(OCCOC)c(OCCOC)cc23)c1` [Tarceva, reference compound] as the compound, how does the “Tumor Weight (x ± S.D.)” value [3] read?
A: 0.281 ± 0.252 g

Q: What about the “Tumor Inhibitor Rate” value ([3]; by tumor weight) of the same compound?
A: 62.0%

Q: What about the T/C ([3]; end of the assay) of the same compound?
A: 47.3%

Q: What about the “Tumor Volume (x ± S.D.)” value ([3]; end of the assay) of the same compound?
A: 498.9 ± 263.4** mm^3

Q: What about the “Tumor Weight (x ± S.D.)” value [4] of the same compound?
A: 0.650 ± 0.267 g

Q: What about the “Tumor Inhibitor Rate” value ([4]; by tumor weight) of the same compound?
A: 40.6%

Q: What about the T/C ([4]; end of the assay) of the same compound?
A: 59.9%

Q: What about the “Tumor Volume (x ± S.D.)” value ([4]; end of the assay) of the same compound?
A: 709.9 ± 274.9** mm^3

Q: What about the “Tumor Weight (x ± S.D.)” value [5] of the same compound?
A: 0.067 ± 0.055 g

Q: What about the T/C ([5]; end of the assay) of the same compound?
A: 5.0%

Q: What about the “Tumor Volume (x ± S.D.)” value ([5]; end of the assay) of the same compound?
A: 55.3 ± 46.3*** mm^3

Q: For “N-[4-(3-chloro-4-fluorophenylamino)-7-(2-methoxyethoxy)quinazolin-6yl]-2-[piperidin-4-ylidene]acetamide disulfate [Compound 5]”, which IC50 [1] is on record?
A: 300 pM
